Measured values published in PubChem BioAssay (NCI).
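Results reflect a 48-hour exposure of cells in 96-well plates to compound at five concentrations. GI50 = concentration required for 50% inhibition of growth. TGI: total growth inhibition.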

Tests used:
Assay in all cases: NCI tumour cell line growth inhibition, 48 h
[1] = tested on: 786-0 renal
[2] = tested on: A549 NSCLC
[3] = tested on: ACHN renal
[4] = tested on: CAKI-1 renal
[5] = tested on: CCRF-CEM leukemia
[6] = tested on: COLO 205 colon
[7] = tested on: DLD-1 colon
[8] = tested on: DMS 273 small cell lung
[9] = tested on: EKVX NSCLC
[10] = tested on: HCC-2998 colon
[11] = tested on: HCT-116 colon
[12] = tested on: HCT-15 colon
[13] = tested on: HL-60(TB) leukemia
[14] = tested on: HOP-18 NSCLC
[15] = tested on: HOP-92 NSCLC
[16] = tested on: HT29 colon
[17] = tested on: IGROV1 ovarian
[18] = tested on: K-562 leukemia
[19] = tested on: KM12 colon
[20] = tested on: KM20L2 colon
[21] = tested on: LOX IMVI melanoma
[22] = tested on: LXFL 529 NSCLC
[23] = tested on: M14 melanoma
[24] = tested on: M19-MEL melanoma
[25] = tested on: MALME-3M melanoma
[26] = tested on: MOLT-4 leukemia
[27] = tested on: NCI-H226 lung
[28] = tested on: NCI-H23 lung
[29] = tested on: NCI-H460 lung
[30] = tested on: OVCAR-3 ovarian
[31] = tested on: OVCAR-4 ovarian
[32] = tested on: OVCAR-5 ovarian
[33] = tested on: OVCAR-8 ovarian
[34] = tested on: RPMI-8226 leukemia
[35] = tested on: RXF 393 renal
[36] = tested on: RXF-631 renal
[37] = tested on: SF-268 CNS
[38] = tested on: SF-295 CNS
[39] = tested on: SF-539 CNS
[40] = tested on: SK-MEL-2 melanoma
[41] = tested on: SK-MEL-28 melanoma
[42] = tested on: SK-MEL-5 melanoma
[43] = tested on: SK-OV-3 ovarian
[44] = tested on: SN12C renal
[45] = tested on: SNB-19 CNS
[46] = tested on: SNB-78 CNS
[47] = tested on: SR leukemia
[48] = tested on: SW-620 colon
[49] = tested on: TK-10 renal
[50] = tested on: U251 CNS
[51] = tested on: UACC-257 melanoma
[52] = tested on: UACC-62 melanoma
[53] = tested on: UO-31 renal
[54] = tested on: XF 498 CNS

For `O=C([O-])c1ccc(C(=O)[O-])cc1.O=C([O-])c1ccc(C(=O)[O-])cc1.[Mo+2].[Mo+2]`, the GI50 [1] was > 100 µM, the TGI [1] was > 100 µM and the GI50 [2] was > 100 µM. The TGI [2] was > 100 µM, the GI50 [3] was > 100 µM and the TGI [3] was > 100 µM. The GI50 [4] was > 100 µM, the TGI [4] was > 100 µM and the GI50 [5] was > 100 µM. For the same compound, the TGI [5] was > 100 µM, the GI50 [6] was > 100 µM and the TGI [6] was > 100 µM. The GI50 [7] was > 100 µM, the TGI [7] was > 100 µM and the GI50 [8] was > 100 µM. The TGI [8] was > 100 µM, the GI50 [9] was > 100 µM and the TGI [9] was > 100 µM. For the same compound, the GI50 [10] was > 100 µM, the TGI [10] was > 100 µM and the GI50 [11] was > 100 µM. The TGI [11] was > 100 µM, the GI50 [12] was > 100 µM and the TGI [12] was > 100 µM. The GI50 [13] was > 100 µM, the TGI [13] was > 100 µM and the GI50 [14] was > 100 µM. For the same compound, the TGI [14] was > 100 µM, the GI50 [15] was 99.8 µM and the TGI [15] was > 100 µM. For the same compound, the GI50 [16] was > 100 µM, the TGI [16] was > 100 µM and the GI50 [17] was > 100 µM. For the same compound, the TGI [17] was > 100 µM, the GI50 [18] was > 100 µM and the TGI [18] was > 100 µM. The GI50 [19] was > 100 µM, the TGI [19] was > 100 µM and the GI50 [20] was > 100 µM. The TGI [20] was > 100 µM, the GI50 [21] was > 100 µM and the TGI [21] was > 100 µM. For the same compound, the GI50 [22] was > 100 µM, the TGI [22] was > 100 µM and the GI50 [23] was > 100 µM. The TGI [23] was > 100 µM, the GI50 [24] was > 100 µM and the TGI [24] was > 100 µM. The GI50 [25] was > 100 µM, the TGI [25] was > 100 µM and the GI50 [26] was > 100 µM. For the same compound, the TGI [26] was > 100 µM, the GI50 [27] was > 100 µM and the TGI [27] was > 100 µM. For the same compound, the GI50 [28] was > 100 µM, the TGI [28] was > 100 µM and the GI50 [29] was > 100 µM. For the same compound, the TGI [29] was > 100 µM, the GI50 [30] was > 100 µM and the TGI [30] was > 100 µM. For the same compound, the GI50 [31] was > 100 µM, the TGI [31] was > 100 µM and the GI50 [32] was > 100 µM. The TGI [32] was > 100 µM, the GI50 [33] was > 100 µM and the TGI [33] was > 100 µM. For the same compound, the GI50 [34] was > 100 µM, the TGI [34] was > 100 µM and the GI50 [35] was > 100 µM. For the same compound, the TGI [35] was > 100 µM, the GI50 [36] was > 100 µM and the TGI [36] was > 100 µM. The GI50 [37] was > 100 µM, the TGI [37] was > 100 µM and the GI50 [38] was > 100 µM. The TGI [38] was > 100 µM, the GI50 [39] was > 100 µM and the TGI [39] was > 100 µM. The GI50 [40] was > 100 µM, the TGI [40] was > 100 µM and the GI50 [41] was > 100 µM. For the same compound, the TGI [41] was > 100 µM, the GI50 [42] was > 100 µM and the TGI [42] was > 100 µM. For the same compound, the GI50 [43] was > 100 µM, the TGI [43] was > 100 µM and the GI50 [44] was > 100 µM. The TGI [44] was > 100 µM, the GI50 [45] was > 100 µM and the TGI [45] was > 100 µM. The GI50 [46] was > 100 µM, the TGI [46] was > 100 µM and the GI50 [47] was > 100 µM. The TGI [47] was > 100 µM, the GI50 [48] was > 100 µM and the TGI [48] was > 100 µM. The GI50 [49] was > 100 µM, the TGI [49] was > 100 µM and the GI50 [50] was > 100 µM. The TGI [50] was > 100 µM, the GI50 [51] was > 100 µM and the TGI [51] was > 100 µM. The GI50 [52] was > 100 µM, the TGI [52] was > 100 µM and the GI50 [53] was > 100 µM. The TGI [53] was > 100 µM, the GI50 [54] was > 100 µM and the TGI [54] was > 100 µM.
